Experimental data: patent publication US11702404B2, “GLP-1R modulating compounds” (priority 2019, dated 2023)

Molecular target: GLP-1R (Homo sapiens, UniProt P43220)
Assay: GLP-1R activation: cAMP increase in CHO cells stably expressing GLP-1R
Format: cell-based
Settings: cAMP increase, CHO cells stably expressing GLP-1R, 10 point dose response, 30 minutes incubation; read-out: EC50

Chain of GLP-1R (P43220 24-463): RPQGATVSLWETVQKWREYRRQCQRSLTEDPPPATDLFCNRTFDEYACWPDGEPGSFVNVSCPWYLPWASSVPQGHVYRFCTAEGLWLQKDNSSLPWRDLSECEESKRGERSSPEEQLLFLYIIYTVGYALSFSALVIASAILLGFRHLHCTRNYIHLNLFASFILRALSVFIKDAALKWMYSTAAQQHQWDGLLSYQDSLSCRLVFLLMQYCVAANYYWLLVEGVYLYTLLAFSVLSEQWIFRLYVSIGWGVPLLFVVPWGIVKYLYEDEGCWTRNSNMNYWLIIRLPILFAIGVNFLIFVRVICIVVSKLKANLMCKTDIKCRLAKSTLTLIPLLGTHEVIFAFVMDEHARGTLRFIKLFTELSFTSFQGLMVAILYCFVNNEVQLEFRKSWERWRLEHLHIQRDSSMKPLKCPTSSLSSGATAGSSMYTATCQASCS

Row | Structure (SMILES) | EC50 [nM]
1 | CC(C)(CF)Cn1c(Cc2ccc(-c3cccc(OCc4ccc(C#N)cc4F)n3)cc2F)nc2ccc(C(=O)O)cc21 [Example 11, 2-(4-(6-((4-cyano-2-fluorobenzyl)oxy)pyridin-2-yl)-2-fluorobenzyl)-1-(3-fluoro-2,2-dimethylpropyl)-1H-benzo[d]imidazole-6-carboxylic acid] | 2.7
2 | CC(C)(Cn1c(Cc2ccc(-c3cccc(OCc4ccc(C#N)cc4F)n3)cc2F)nc2ccc(C(=O)O)cc21)C(F)F [Example 12, 2-(4-(6-((4-cyano-2-fluorobenzyl)oxy)pyridin-2-yl)-2-fluorobenzyl)-1-(3,3-difluoro-2,2-dimethylpropyl)-1H-benzo[d]imidazole-6-carboxylic acid] | 1.77
3 | COCCn1c(Cc2ncc(-c3cccc(OCc4ccc(C#N)cc4F)n3)cn2)nc2ccc(C(=O)O)cc21 [Example 58, 2-((5-(6-((4-cyano-2-fluorobenzyl)oxy)pyridin-2-yl)pyrimidin-2-yl)methyl)-1-(2-methoxyethyl)-1H-benzo[d]imidazole-6-carboxylic acid] | 28.8
4 | COCCn1c(Cc2ccc(-c3cccc(OCc4ccc(C#N)c5c4OCCC5)n3)cc2F)nc2ccc(C(=O)O)cc21 [Example 144, 2-(4-(6-((5-cyanochroman-8-yl)methoxy)pyridin-2-yl)-2-fluorobenzyl)-1-(2-methoxyethyl)-1H-benzo[d]imidazole-6-carboxylic acid] | 20.7
5 | COCCn1c(Cc2ccc(-c3cccc(OCc4cccc5c4OCCN5C)n3)cc2F)nc2ccc(C(=O)O)cc21 [Example 149, 2-(2-fluoro-4-(6-((4-methyl-3,4-dihydro-2H-benzo[b][1,4]oxazin-8-yl)methoxy)pyridin-2-yl)benzyl)-1-(2-methoxyethyl)-1H-benzo[d]imidazole-6-carboxylic acid] | 2040
6 | COCCn1c(Cc2ccc(-c3cccc(OCc4ccc(C(F)F)cc4F)n3)cc2F)nc2ccc(C(=O)O)cc21 [Example 150, 2-(4-(6-((4-(difluoromethyl)-2-fluorobenzyl)oxy)pyridin-2-yl)-2-fluorobenzyl)-1-(2-methoxyethyl)-1H-benzo[d]imidazole-6-carboxylic acid] | 3.35
7 | COCCn1c(Cc2ccc(-c3cccc(OCc4ccc(Br)c5nsnc45)n3)cc2F)nc2ccc(C(=O)O)cc21 [Example 151, 2-(4-(6-((7-bromobenzo[c][1,2,5]thiadiazol-4-yl)methoxy)pyridin-2-yl)-2-fluorobenzyl)-1-(2-methoxyethyl)-1H-benzo[d]imidazole-6-carboxylic acid] | 7.93
8 | COCCn1c(Cc2ccc(-c3cccnc3OCc3ccccc3)cc2F)nc2ccc(C(=O)O)cc21 [Example 183, 2-(4-(2-(benzyloxy)pyridin-3-yl)-2-fluorobenzyl)-1-(2-methoxyethyl)-1H-benzo[d]imidazole-carboxylic acid] | 3960
9 | COCCn1c(Cc2ccc(-c3cccc(OCC(=O)c4ccc(OC)cc4)n3)cc2F)nc2ccc(C(=O)O)cc21 [Example 215, 2-(2-fluoro-4-(6-(2-(4-methoxyphenyl)-2-oxoethoxy)pyridin-2-yl)benzyl)-1-(2-methoxyethyl)-1H-benzo[d]imidazole-6-carboxylic acid] | 62.7
10 | COCCn1c(Cc2ccc(-c3cccc(OCc4cnc(Cl)nc4OC)n3)cc2F)nc2ccc(C(=O)O)cc21 [Example 227, 2-(4-(6-((2-chloro-4-methoxypyrimidin-5-yl)methoxy)pyridin-2-yl)-2-fluorobenzyl)-1-(2-methoxyethyl)-1H-benzo[d]imidazole-6-carboxylic acid] | 14.3
11 | COc1cc(Cl)ccc1COc1nccc(-c2cc(F)c(Cc3nc4ccc(C(=O)O)cc4n3CC3(CC#N)CC3)cc2F)n1 [Example 446, 2-(4-(2-((4-chloro-2-methoxybenzyl)oxy)pyrimidin-4-yl)-2,5-difluorobenzyl)-1-((1-(cyanomethyl)cyclopropyl)methyl)-1H-benzo[d]imidazole-6-carboxylic acid] | 0.15
12 | NC(=O)c1ccc(COc2cc(-c3ccc(Cc4nc5ccc(C(=O)O)cc5[nH]4)c(F)c3)ccc2F)c(F)c1 [Example 469, 2-((3′-((4-carbamoyl-2-fluorobenzyl)oxy)-3,4′-difluoro-[1,1′-biphenyl]-4-yl)methyl)-1H-benzo[d]imidazole-6-carboxylic acid] | ≥ 1000
13 | COCCn1c(Cc2cc(F)c(-c3nc(OCc4ccc(C#N)cc4F)c(F)cc3F)cc2F)nc2ccc(C(=O)O)cc21 [Example 538, 2-(4-(6-((4-cyano-2-fluorobenzyl)oxy)-3,5-difluoropyridin-2-yl)-2,5-difluorobenzyl)-1-(2-methoxyethyl)-1H-benzo[d]imidazole-6-carboxylic] | 4250
14 | CO[C@H]1C[C@@H](n2c(Cc3cc(F)c(-c4cccc(OCc5ccc(C#N)cc5F)n4)cc3F)nc3ccc(C(=O)O)cc32)C1 [Example 566, 2-(4-(6-((4-cyano-2-fluorobenzyl)oxy)pyridin-2-yl)-2,5-difluorobenzyl)-1-((1s,3s)-3-methoxycyclobutyl)-1H-benzo[d]imidazole-6-carboxylic acid] | 255

Second part, the compound after the results:

Row | EC50 [nM] | Structure (SMILES)
15 | 0.23 | N#Cc1ccc(COc2cccc(-c3cc(F)c(Cc4nc5c(F)cc(C(=O)O)cc5n4Cc4ncco4)cc3F)n2)c(F)c1 [Example 584, 2-(4-(6-((4-cyano-2-fluorobenzyl)oxy)pyridin-2-yl)-2,5-difluorobenzyl)-4-fluoro-1-(oxazol-2-ylmethyl)-1H-benzo[d]imidazole-6-carboxylic acid]
16 | 3190 | COCCn1c(Cc2ccc(-c3cccc(OCc4nnc(Cl)s4)n3)cc2F)nc2ccc(C(=O)O)cc21 [Example 590, 2-(4-(6-((5-chloro-1,3,4-thiadiazol-2-yl)methoxy)pyridin-2-yl)-2-fluorobenzyl)-1-(2-methoxyethyl)-1H-benzo[d]imidazole-6-carboxylic acid]
17 | 1.48 | N#Cc1ccc(COc2nccc(-c3ccc(Cc4nc5c(F)cc(C(=O)O)cc5n4Cc4ncco4)cc3F)n2)c(F)c1 [Example 618]
18 | 1.18 | N#Cc1ccc(COc2cccc(-c3cc(F)c(Cc4nc5ccc(C(=O)O)cc5n4CC4(CO)CC4)cc3F)n2)c(F)c1 [Example 637]
19 | 22.6 | CC12COC(Cn3c(Cc4cc(F)c(-c5cccc(OCc6ccc(C#N)cc6F)n5)cc4F)nc4ccc(C(=O)O)cc43)(C1)C2 [Example 741]
20 | 0.08 | O=C(O)c1ccc2nc(Cc3cc(F)c(-c4nc(OCc5ccc(C(F)F)cc5F)ccc4F)cc3F)n(C[C@@H]3CCO3)c2c1 [Example 787]
21 | 4.55 | COCCn1c(Cc2cc(F)c(-c3cccc(OCc4ccc(C#N)cc4F)n3)c(F)c2F)nc2ccc(C(=O)O)cc21 [Example 856, 2-(4-(6-((4-cyano-2-fluorobenzyl)oxy)pyridin-2-yl)-2,3,5-trifluorobenzyl)-1-(2-methoxyethyl)-1H-benzo[d]imidazole-6-carboxylic acid]
22 | 3.71 | COCCn1c(Cc2cc(F)c(-c3cccc(OCc4ccc(C(F)(F)F)s4)n3)cc2F)nc2ccc(C(=O)O)cc21 [Example 864]
23 | 69.5 | COC1(Cn2c(Cc3cc(F)c(-c4cccc(OCc5ccc(C#N)cc5F)n4)cc3F)nc3ccc(C(=O)O)cc32)CN(C(=O)C2CC2)C1 [Example 889, 2-(4-(6-((4-cyano-2-fluorobenzyl)oxy)pyridin-2-yl)-2,5-difluorobenzyl)-1-((1-(cyclopropanecarbonyl)-3-methoxyazetidin-3-yl)methyl)-1H-benzo[d]imidazole-6-carboxylic acid]
